# Assay results taken from US20030073218A1, “High affinity inhibitors for target validation and uses thereof” (Princeton University, priority 1999, published 2003).
# Tests used:
# WT Fyn = molecular target: T1, WT Fyn (Homo sapiens, UniProt P06241); assay: In Vitro Kinase Inhibition Assay; format: biochemical; set-up: in vitro inhibition of Fyn: dose or concentration left out as unconfirmed; settings: for IC50: Table 3, wild type
# T1 construct: GST (N); made in house; host or cells: E. coli DH5a, pGEX-KT
# [1] = tested on: B cell receptor (BCR) mediated phosphorylation cascade in murine B cells; assay: Murine B Cell Assay (phosphotyrosine blot after anti-IgM stimulation); format: cell-based; set-up: dose or concentration left out as unconfirmed; settings: 30 minutes, anti-IgM cross linked murine B cells
# Experimental: Murine B Cell Assay: Splenic lymphocytes were isolated from 6-20 week old Balb/c or C57/B6 mice. The cells were washed out of the spleen into RPMI media containing 1 mg/mL DNase in and the red blood cells were lysed in 17 mM tris-ammonium chloride, pH 7.2, Approximately 4×10^6 cells were incubated at 37° C. for 30 minutes with […] of 3 g or 2 in 1.1% DMSO. B cell stimulation was initiated by the addition of 2 mg of goat anti-mouse IgM (Jackson Immuno Research, cat# 115-005-075) and subsequent incubation for 5 minutes at 37(C. The cells were isolated by centrifugation (13,000 rpm, 2 min) and lysed (lysis buffer: 1% Triton X-100, 50 mM tris pH 7.4, 2 mM EDTA, 150 mM NaCl, […] PMSF, 2 mM sodium orthovanadate, 10 mg/mL leupeptin, 10 mg/mL apoprotin). The cellular debris was then pelleted at 13,000 rpm for 15 min. Cellular proteins were separated by 10% polyacrylamide gel electrophoresis and transferred to a nitrocellulose membrane by Western blotting. Phosphotyrosine containing proteins were visualized by immunoblotting with anti-phosphotyrosine antibody (Upstate Biotechnology, Inc.).
# I338G v-Src = molecular target: T2, I338G v-Src (Rous sarcoma virus subgroup A, UniProt P00524, DEL77-225/I338G); assay: biochemical; format: biochemical
# T2 construct: screened against the catalytic domain of the target kinase, I338G v-Src; made in house; host or cells: E. coli DH5a, pGEX-KT
# WT v-Src = molecular target: T3, WT v-Src (Rous sarcoma virus subgroup A, UniProt P00524, DEL77-225); assay: biochemical; format: biochemical; set-up: in vitro inhibition of WT v-Src: dose or concentration left out as unconfirmed
# T3 construct: mutant of the v-Src catalytic domain, (the XD4 fragment) were made as glutathione S-transferase (GST) fusion proteins; made in house; host or cells: E. coli (DH5a), pGEX-KT
# GST-XD4(V323A, I338A) = settings: 100 μM analog, 10 μM [γ-32P] ATP
# [2] = tested on: protein tyrosine kinase in murine lymphocyte cell lysate (CF); assay: Screening of ATP analogs as kinase substrates in murine lymphocyte lysate (anti-phosphotyrosine immunoblot); format: biochemical; settings: 100 uM nucleotide triphosphate, 37° C., 5 min
# Experimental: Screening of Nucleotide Analogs: To identify compounds that would not be accepted as substrates by any existing cellular kinase (53), a panel of synthetic A*TP analogs were screened in a murine lymphocyte lysate (CF) rich in protein tyrosine kinase (13). The assays were performed using spleenocytes (8-30 week old male and female C57/B6 mice from the Princeton University Animal Facility) which were isolated and washed in RPMI-1640 medium containing 5% Bovine Calf Serum (BCS), 1% Hepes and DNAseI (1 μg/ml). Red cells were lysed at 4° C. by treatment with 17 mM tris ammonium chloride pH 7.2. The cells were hypotonically lysed on ice for 10 min. In 1 mM Hepes pH 7.4, 5 mM MgCl2, leupeptin (10 μg/ml), aprotinin (10 μg/ml) and 100 uM PMSF according to the method of Fukazawa et. al. (51). After vortexing and centrifuigation at 500 xg, the supernatant was collected. Cells were stored at 4° C. for 20 min. To attenuate the basal protein phosphorylation level, after which the buffer was adjusted to 20 mM Hepes pH 7.4, 10 mM MgCl2 and 1 mM NaF. Sodium vanadate (100 uM) was then added to inhibit the activity of phosphotyrosine phosphatases.
# Each nucleotide triphosphate was added to a final concentration of 100 uM to 5×10^6 cell equivalents and incubated at 37° C. for 5 min. after which 4X Laemmli gel loading buffer was added to the cell lysate to quench the reaction. Proteins were separated by 12.5% SDS-PAGE and transferred to Protran BA85 (Schleicher-Schuell). The blot was probed with the anti-phosphotyrosine monoclonal antibody 4G10 (Upstate Biotechnology) and the bound antibody was detected via enhanced chemiluminescence (cat. 34080, Pierce) following treatment with HRP- coupled goat-anti-mouse antibody (VWR cat. 7101332) according to the manufacturer's instructions.
# The cell lysate used includes the protein tyrosine kinase Src, Fyn, Lck, Lyn, Yes, Fgr, Hck, Zap, Syk, Btk, Blk, and other protein tyrosine kinase present in B and T lymphocytes, macrophages, and follicular dendritic cells (13). Molecular size standards (in kilodaltons) are indicated.
# T1 sequence (P06241 1-534 isoform P06241-2): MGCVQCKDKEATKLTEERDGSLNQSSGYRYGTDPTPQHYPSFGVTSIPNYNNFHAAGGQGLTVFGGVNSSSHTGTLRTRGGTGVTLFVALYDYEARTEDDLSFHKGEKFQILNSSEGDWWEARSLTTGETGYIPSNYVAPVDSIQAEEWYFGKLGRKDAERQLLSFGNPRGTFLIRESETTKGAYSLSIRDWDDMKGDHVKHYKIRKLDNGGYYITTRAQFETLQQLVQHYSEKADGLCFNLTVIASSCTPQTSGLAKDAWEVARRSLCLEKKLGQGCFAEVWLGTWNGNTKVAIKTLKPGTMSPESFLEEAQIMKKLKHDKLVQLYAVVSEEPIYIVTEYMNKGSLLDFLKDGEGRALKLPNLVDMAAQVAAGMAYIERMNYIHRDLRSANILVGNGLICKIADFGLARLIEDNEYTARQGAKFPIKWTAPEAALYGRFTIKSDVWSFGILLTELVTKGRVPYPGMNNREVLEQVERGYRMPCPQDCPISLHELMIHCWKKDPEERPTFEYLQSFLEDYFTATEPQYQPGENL
compound,measurement,setting,value
"CC(C)(C)n1nc(-c2ccccc2)c2c(N)ncnc21 [2 (FIG. 14), 4-Amino-1-tert-butyl-3-phenylpyrazolo[3,4-d] pyrimidine, reference compound]",inhibition of WT Fyn (in words),WT Fyn,highly potent (low nM)
same,phosphotyrosine pattern of B cell stimulation,[1],significant reduction in tyrosine phosphorylation
"CC(C)(C)n1nc(-c2cccc(OCc3c(Cl)cccc3Cl)c2)c2c(N)ncnc21 [Compound 6e, 4-amino-1-(tert-butyl)-3-(m-(2′,6′-dichloro)benzyloxyphenyl) pyrazolo[3,4-d]pyrimidine]",IC50,WT Fyn,84000 nM
same,IC50,I338G v-Src,130 nM
"CC(C)(C)n1nc(-c2cccc(Oc3ccccc3)c2)c2c(N)ncnc21 [Compound 6c, 4-amino-1-(tert-butyl)-3-(m-phenoxyphenyl)pyrazolo[3,4-d]pyrimidine]",IC50,WT Fyn,800 nM
same,IC50,WT v-Src,40000 nM
same,IC50,I338G v-Src,140 nM
"O=P(O)(O)OP(=O)(O)OP(=O)(O)OC[C@H]1O[C@@H](n2cnc3c(NOC4CCCC4)ncnc32)[C@H](O)[C@@H]1O [ATP analog 9, N^6(cyclopentyloxy)ATP]","inhibition of GST-XD4(V323A, I338A) catalyzed RR-Src phosphorylation","GST-XD4(V323A, I338A)","almost as well as the wild-type kinase, GST-XD4, is inhibited by its natural substrate ATP"
"O=P(O)(O)OP(=O)(O)OP(=O)(O)OC[C@H]1O[C@@H](n2cnc3c(NCc4ccccc4)ncnc32)[C@H](O)[C@@H]1O [ATP analog 5, N^6-(benzyl)ATP]",ability to serve as cellular protein tyrosine kinase substrate (level of protein tyrosine phosphorylation),[2],little or no protein phosphorylation
same,"inhibition of GST-XD4(V323A, I338A) catalyzed RR-Src phosphorylation","GST-XD4(V323A, I338A)","almost as well as the wild-type kinase, GST-XD4, is inhibited by its natural substrate ATP"
"CC(C)(C)n1nc(Cc2ccc3ccccc3c2)c2c(N)ncnc21 [Compound 6j, 4-amino-1-(tert-butyl)-3-(2′-naphthylmethyl)pyrazolo[3,4-d]pyrimidine]",IC50,WT v-Src,> 300000 nM
same,IC50,I338G v-Src,20 nM
same,inhibition of I338G v-Src (in words),I338G v-Src,medium potency
"O=P(O)(O)OP(=O)(O)OP(=O)(O)OC[C@H]1O[C@@H](n2cnc3c(NC4CCCCC4)ncnc32)[C@H](O)[C@@H]1O [ATP analog 11, N^6-(cyclohexyl)ATP]","inhibition of GST-XD4(V323A, I338A) catalyzed RR-Src phosphorylation","GST-XD4(V323A, I338A)","almost as well as the wild-type kinase, GST-XD4, is inhibited by its natural substrate ATP"
"CC(C)(C)n1nc(-c2ccc3ccccc3c2)c2c(N)ncnc21 [Compound 6b, 4-amino-1-(tert-butyl)-3-(2′-naphthyl)pyrazolo[3,4-d]pyrimidine]",IC50,WT Fyn,130 nM
"Cc1ccc(-c2nn(C(C)(C)C)c3ncnc(N)c23)cc1 [PP1, 4-amino-1-tert-butyl-3-(p-methylphenyl)pyrazolo[3,4-d]pyrimidine, reference compound]",inhibition of WT Fyn (in words),WT Fyn,highly potent (low nM)
"CONc1ncnc2c1ncn2[C@@H]1O[C@H](COP(=O)(O)OP(=O)(O)OP(=O)(O)O)[C@@H](O)[C@H]1O [ATP analog 1, N^6(methoxy)ATP]",ability to serve as cellular protein tyrosine kinase substrate (level of protein tyrosine phosphorylation),[2],some ability to serve as cellular protein tyrosine kinase substrates
"CC(C)(C)n1nc(-c2ccccc2)c2c(NCc3ccccc3)ncnc21 [Compound 4e, 4-benzylamino-1-tert-butyl-3-phenylpyrazolo[3,4-d]pyrimidine]",inhibition of WT Fyn (in words),WT Fyn,sufficiently orthogonal to WT Fyn
same,inhibition of I338G v-Src (in words),I338G v-Src,only poor to moderate inhibition
"CC(=O)Nc1ncnc2c1ncn2[C@@H]1O[C@H](COP(=O)(O)OP(=O)(O)OP(=O)(O)O)[C@@H](O)[C@H]1O [ATP analog 3, N^6(acetyl)ATP]",ability to serve as cellular protein tyrosine kinase substrate (level of protein tyrosine phosphorylation),[2],some ability to serve as cellular protein tyrosine kinase substrates
"CC(C)(C)n1nc(-c2ccccc2)c2c(NCc3ccco3)ncnc21 [Compound 4d, 4-2′-furylmethylamino-1-tert-butyl-3-phenylpyrazolo[3,4-d]pyrimidine]",inhibition of WT Fyn (in words),WT Fyn,sufficiently orthogonal to WT Fyn
same,inhibition of I338G v-Src (in words),I338G v-Src,only poor to moderate inhibition
"CC(C)(C)c1ccc(-c2nn(C(C)(C)C)c3ncnc(N)c23)cc1 [Compound 6g, 4-amino-1-(tert-butyl)-3-(p-tert-butylphenyl)pyrazolo[3,4 d]pyrimidine]",IC50,WT Fyn,9200 nM
same,IC50,WT v-Src,65000 nM
same,IC50,I338G v-Src,99 nM
"CCONc1ncnc2c1ncn2[C@@H]1O[C@H](COP(=O)(O)OP(=O)(O)OP(=O)(O)O)[C@@H](O)[C@H]1O [ATP analog 2, N^6(ethoxy)ATP]",ability to serve as cellular protein tyrosine kinase substrate (level of protein tyrosine phosphorylation),[2],some ability to serve as cellular protein tyrosine kinase substrates
"CC(C)ONc1ncnc2c1ncn2[C@@H]1O[C@H](COP(=O)(O)OP(=O)(O)OP(=O)(O)O)[C@@H](O)[C@H]1O [ATP analog 4, N^6(i-propoxy)ATP]",ability to serve as cellular protein tyrosine kinase substrate (level of protein tyrosine phosphorylation),[2],little or no protein phosphorylation
"O=P(O)(O)OP(=O)(O)OP(=O)(O)OC[C@H]1O[C@@H](n2cnc3c(NOCc4ccccc4)ncnc32)[C@H](O)[C@@H]1O [ATP analog 6, N^6-(benxyloxy)ATP]",ability to serve as cellular protein tyrosine kinase substrate (level of protein tyrosine phosphorylation),[2],little or no protein phosphorylation
"CC(C)(C)n1nc(-c2ccccc2)c2c(NCC3CCCC3)ncnc21 [Compound 4b, 4-cyclopentylmethylamino-1-tert-butyl-3-phenylpyrazolo[3,4-d]pyrimidine]",inhibition of WT Fyn (in words),WT Fyn,sufficiently orthogonal to WT Fyn
same,inhibition of I338G v-Src (in words),I338G v-Src,only poor to moderate inhibition
"OCC1OC(n2cnc3c(NOC4CCCC4)ncnc32)C(O)C1O (stereo not drawn) [1 (FIG. 14A), N-6 cyclopentyloxyadenosine]",in vitro inhibition of Fyn,WT Fyn,no detectable in vitro inhibition
same,in vitro inhibition of WT v-Src,WT v-Src,no detectable in vitro inhibition
"CC(C)(C)n1nc(-c2cccc(OCc3ccccc3)c2)c2c(N)ncnc21 [Compound 6d, 4-amino-1-(tert-butyl)-3-(m-benzyloxyphenyl)pyrazolo[3,4-d]pyrimidine]",IC50,WT Fyn,6000 nM
same,IC50,WT v-Src,26000 nM
same,IC50,I338G v-Src,7 nM
same,inhibition of I338G v-Src (in words),I338G v-Src,low nM concentrations
